Results on seven compounds are retold here after publication PMC10609273, “Radiosynthesis and Early Evaluation of a Positron Emission Tomography Imaging Probe [^18F]AGAL Targeting Alpha-Galactosidase A Enzyme for Fabry Disease” (Molecules, 2023).

What all share (type): in vitro ADME
A short description of data set [1]: Bidirectional permeability in Caco-2 cells. As to conditions: human, Caco-2, 5 µM, alone; for efflux ratio at 60 min, 5 µM: read-out: Ratio (B/A), efflux ratio. The protocol: The Caco-2 cell culture and bidirectional permeability assays used in the study were adapted from previous studies at Takeda. Briefly, Caco-2 cells were obtained from American Type Culture Collection (ATCC) (Manassas, VA, USA) and were cultured in 175 cm^2 tissue culture T-flasks (Corning Life Sciences, Corning, NY, USA). For bidirectional permeability assays, cells were plated onto Costar 24-well culture plates (0.33 cm^2/well, […] (Corning Life Sciences, Corning, NY, USA) by adding 1 × 10^5 cells suspended in 0.2 mL of culture medium (Dulbecco’s modified Eagle’s medium [DMEM] with 0.1 mM non-essential amino acids, 2 mM L-glutamine, 4.5 g/L glucose, and 10% fetal bovine serum [FBS]) to the upper chamber of each well of the 24-well transwell plate. Cell-free culture medium (40 mL) was added to the lower chamber reservoir (Corning Life Sciences, Corning, NY, USA). The transwell plates were then incubated at 37 °C in an atmosphere of 5% CO2 for 25 days to ensure complete enterocyte-like differentiation of the cells, and the culture medium was changed every three to four days during the incubation period. Cell monolayers with transepithelial electrical resistance (TEER) values > 250 ohms × cm^2 were used for the bidirectional permeability assays.
All chemicals and reagents including control compounds were purchased from commercial sources such as Sigma-Aldrich or synthesized in house (pevonedistat and LY335979). Bidirectional transport studies were performed at 37 °C. Before each experiment, the confluent cell monolayers on transwell inserts were washed and equilibrated for 30 min with transport media (Hank’s Balanced Salt Solution [HBSS] containing 25 mM 4-(2-hydroxyethyl)-1-piperazineethanesulfonic acid [HEPES] and 10 mM glucose, pH 7.4 or 6.5). The bidirectional permeability of 5 µM of the cyclohexane derivative was assessed alone or in the presence of 5 µM LY335979, 5 µM K0143, or 10 µM Elacridar to inhibit P-gp, BCRP, and both efflux transporters, respectively. Additionally, the bi-directional permeability of 5 µM solutions of nadolol (low permeable control marker), minoxidil (high permeable marker), propranolol (high permeable marker), and pevonedistat (efflux transporter control) was also assessed. The experiment was initiated by adding a solution containing the test compounds and LY335979 to either the apical (for apical-to-basolateral [A-to-B] transport) or basolateral (for basolateral-to-apical [B-to-A] transport) compartment. Lucifer yellow (50 µM) was added to each donor chamber in the experiment to serve as a paracellular transport control and to monitor cell monolayer integrity. The apical volume was 0.2 mL and the basolateral volume was 1.0 mL. Bovine serum albumin (BSA, Sigma Aldrich) (5%) was added to the transport media on the receiver side to prevent non-specific binding of the test compound to the polystyrene well. After the addition of test compound into the donor side, […] of the receiving solution were withdrawn from the receiver side at 30 and 60 min. A […] of fresh transport media was immediately added to the receiver side at 30 and 60 min. The samples were placed into 96-well black plates (PerkinElmer Life Sciences, Boston, MA, USA) for fluorescence measurement (excitation at 450 nm and emission at 535 nm). After this measurement, the amounts of cyclohexane derivative and control compounds in each sample were quantified with liquid chromatography–mass spectrometry (LC–MS). The time course of drug transported across cell monolayers was analyzed to determine the time and rate of steady-state flux. The transport rate (total amount of drug present in the receiver chamber per unit time), Papp, and efflux ratio were calculated as described in Equations (4) and (5). […]
For orientation: Caco-2 cells form a polarised layer with tight junctions and transporters.

A short description of data set [2]: In vitro liver microsomal metabolism study, mouse. The note with it: mouse liver microsomes. The protocol: (§1) Metabolic stability was assessed by incubating compounds in the presence of human, rat, and mouse liver microsomal fractions (Xenotech, Kansas City, KS, USA). All chemicals and reagents, including control compounds, were purchased from commercial sources such as Sigma-Aldrich (St. Louis, MO, USA) or Toronto Research Chemicals (North York, ON, Canada). Liver microsomal incubations were conducted with 100 mM phosphate buffer, 0.5 mg/mL of liver microsomal protein, 2 mM NADPH, 2.5 mM UDPGA, 3 mM MgCl2, alamethicin, and 1 μM test article for a total incubation volume of 80 µL. All reagents except the liver microsomes were mixed together and aliquoted (60 μL) into 96-well plates. The reaction was initiated by adding the microsomes (20 μL). At 0, 3, 7, 12, 20, and 30 min time points, the reactions were terminated with the addition of acetonitrile-containing carbutamide (as an internal standard). The terminated samples were then centrifuged at 2 °C to pellet the protein and the supernatant was injected onto an LC–MS. The test article was monitored for loss over time and the t1/2 was determined. The calculated t1/2 was then used as described below to determine the Eh (hepatic extraction ratio) for both human and rat.
(§2) The intrinsic clearance (CLint), hepatic clearance (CLh), and hepatic extraction ratio (Eh) were calculated using the equations below. CLint = (0.693/t1/2 in vitro) × (mL incubation volume/mg microsomal protein) × (X mg of microsomal protein/gram of liver) × (Y g of liver/kg of body weight)(1) CLh = Q × CLint/Q + CLint(2) Eh = CLh/Q(3) where: • CLint = intrinsic clearance (calculated from microsomal incubations) • X = 40 for human, 41.5 for rat and 45 for mouse • Y = 21.4 for human, 40 for rat and 50 for mouse • t1/2 = half-life • CLh = hepatic clearance • Q = liver blood flow rate = 1.24 L/h/kg for human, 4.8 L/h/kg for rat, and 5.4 L/h/kg for mouse • Eh = hepatic extraction ratio • CLh = hepatic clearance
For orientation: Liver microsomes are vesicles of endoplasmic reticulum, rich in cytochrome P450 enzymes.

The nature of data set [3]: In vitro liver microsomal metabolism study, rat. The note with it: rat liver microsomes. On the procedure: as §1, §2
A short description of data set [4]: In vitro liver microsomal metabolism study, human. As to conditions: human liver microsomes. The protocol: as §1, §2
A short description of data set [5]: Plasma stability study, mouse. The note with it: mouse, pooled plasma, 37 °C, read-out: Plasma Half-Life, t1/2. The protocol: (§3) Briefly, plasma stability was assessed by incubating compounds in the presence of human (pooled) and mouse (pooled) plasma (Bioreclamation, Westbury, NY, USA). All chemicals and reagents including control compounds were purchased from commercial sources such as Sigma-Aldrich or Toronto Research Chemicals. Plasma incubations were conducted by placing plasma (95 μL) in a 96-well microtiter plate and warming to 37 °C for 5 min. The reaction was initiated with the addition of the test article (5 μL of 20 μM), totaling 100 μL in incubation volume. At 0, 15, 30, 60, and 120 min time points, the reactions were terminated with the addition of acetonitrile-containing carbutamide (as an internal standard). The terminated samples were then centrifuged at 2 °C to pellet the protein, and the supernatant was injected onto an LC–MS. The test article was monitored for loss over time and the t1/2 was determined.

A short description of data set [6]: Plasma stability study, human. As to conditions: pooled plasma, 37 °C, read-out: Plasma Half-Life, t1/2. The protocol:
as §3

In the case of `CC(C)NCC(O)COc1cccc2ccccc12` (stereo not shown) [Propranolol, reference compound], in data set [1], the apical-to-basolateral permeability (Papp A→B) (commonly the apparent permeability from the apical to the basolateral side of a cell layer) at 60 min, 5 µM is 43.7 ×10⁻⁶ cm/s; the Papp B→A (in general, the apparent permeability from the basolateral to the apical side of a cell layer) at 60 min, 5 µM is 44.4 ×10⁻⁶ cm/s; the efflux ratio at 60 min, 5 µM amounted to 1.
Consider `COc1ccc2c(c1)[C@]13CCCC[C@@H]1[C@H](C2)N(C)CC3` [Dextromethorphan, reference compound], for which the CLh in data set [2] was 77.3 mL/min/kg; in data set [3], 71.2 mL/min/kg; in data set [4], 14 mL/min/kg. The “Eh (hepatic extraction ratio)” value in data set [2] came to 0.860; in data set [3], 0.889; in data set [4], 0.676. In addition, the CLint scaled (usually a measure of how fast metabolising enzymes remove a compound, apart from limits set by blood flow) at 1 µM in data set [2] (1 μM, NADPH + UDPGA) is 552 mL/min/kg; in data set [3] (1 μM, NADPH + UDPGA) it was 642 mL/min/kg; in data set [4] (1 μM, NADPH + UDPGA), 43.2 mL/min/kg.
In the case of `CC(C)(C)NCC(O)COc1cccc2c1CC(O)C(O)C2` (stereo not shown) [Nadolol, reference compound], in data set [1], the apical-to-basolateral permeability (Papp A→B) at 60 min, 5 µM worked out at 0.36 ×10⁻⁶ cm/s; the Papp B→A at 60 min, 5 µM is 1.45 ×10⁻⁶ cm/s; the efflux ratio at 60 min, 5 µM was found to be 4.1.
`Nc1cc(N2CCCCC2)nc(N)[n+]1[O-]` [Minoxidil, reference compound]: in data set [1], the Papp A→B at 60 min, 5 µM is 7.81 ×10⁻⁶ cm/s; the Papp B→A at 60 min, 5 µM stood at 9.78 ×10⁻⁶ cm/s; the efflux ratio at 60 min, 5 µM amounted to 1.3.
As for `CC(C)[N+](C)(CCOC(=O)C1c2ccccc2Oc2ccccc21)C(C)C` [Propantheline, reference compound], the half-life at 1 µM stood at 26 min in data set [5] and 7.22 min in data set [6].
Turning to `NS(=O)(=O)OC[C@@H]1C[C@@H](n2ccc3c(N[C@H]4CCc5ccccc54)ncnc32)C[C@@H]1O` [Pevonedistat, reference compound], in data set [1], the Papp A→B at 60 min, 5 µM came out at 3.37 ×10⁻⁶ cm/s; the apparent permeability from basolateral to apical (Papp B→A) at 60 min, 5 µM was 63.4 ×10⁻⁶ cm/s; the efflux ratio at 60 min, 5 µM worked out at 18.8.
As to `CCOC(=O)[C@H](CCc1ccccc1)N[C@@H](C)C(=O)N1CCC[C@H]1C(=O)O` [Enalapril, reference compound], the half-life at 1 µM in data set [5] stood at 30.6 min; in data set [6] it was 283 min.
